Like-named read-outs stand apart in the source and are kept apart here.
What was measured:
HIV strain A = assay: Cellular anti-HIV assay, clinically isolated mutant strain A; format: cell-based; settings: FR=EC50 (mutant strain)/EC50 (HIV-1 strain LAI)
Protocol: (§1) HIV- or mock-infected MT4 cells were incubated for five days in the presence of various concentrations of the inhibitor. […] Cell viability is measured by measuring the concentration of MTT, a yellow, water soluble tetrazolium dye that is converted to a purple, water insoluble formazan in the mitochondria of living cells only. Upon solubilization of the resulting formazan crystals with isopropanol, the absorbance of the solution is monitored at 540 nm. The values correlate directly to the number of living cells remaining in the culture at the completion of the five day incubation. The inhibitory activity of the compound was monitored on the virus-infected cells and was expressed as EC50 and EC90. These values represent the amount of the compound required to protect 50% and 90%, respectively, of the cells from the cytopathogenic effect of the virus. […] The selectivity index (SI) (ratio CC50/EC50) is an indication of the selectivity of the anti-HIV activity of the inhibitor. Wherever results are reported as e.g. pEC50 or pCC50 values, the result is expressed as the negative logarithm of the result expressed as EC50 or CC50 respectively.
(§2) Because of the increasing emergence of drug resistant HIV strains, the present compounds were tested for their potency against clinically isolated HIV strains harboring several mutations (Table 7 and 8).
(§3) As a measure of the broad spectrum activity of the present compounds, the fold resistance (FR), defined as FR=EC50 (mutant strain)/EC50 (HIV-1 strain LAI), was determined.

HIV strain F = assay: Cellular anti-HIV assay, clinically isolated mutant strain F; format: cell-based; settings: FR=EC50 (mutant strain)/EC50 (HIV-1 strain LAI)
Protocol: as §1, §2, §3

HIV strain E = assay: Cellular anti-HIV assay, clinically isolated mutant strain E; format: cell-based; settings: FR=EC50 (mutant strain)/EC50 (HIV-1 strain LAI)
Protocol: as §1, §2, §3

HIV strain B = assay: Cellular anti-HIV assay, clinically isolated mutant strain B; format: cell-based; settings: FR=EC50 (mutant strain)/EC50 (HIV-1 strain LAI)
Protocol: as §1, §2, §3

HIV strain D = assay: Cellular anti-HIV assay, clinically isolated mutant strain D; format: cell-based; settings: FR=EC50 (mutant strain)/EC50 (HIV-1 strain LAI)
Protocol: as §1, §2, §3

HIV strain C = assay: Cellular anti-HIV assay, clinically isolated mutant strain C; format: cell-based; settings: FR=EC50 (mutant strain)/EC50 (HIV-1 strain LAI)
Protocol: as §1, §2, §3

mock-infected MT4 cells = assay: Toxicity on mock-infected cells (MTT)
Protocol: as §1, §3

HIV-1 strain LAI = assay: Cellular anti-HIV assay (MTT), wild type strain; format: cell-based; settings: for pEC50: MT4 cells, five days, MTT, HIV-1 strain LAI, Tables 1-6; for WT (pEC50 against wild type HIV-LAI strain): Table 8
Protocol: The compounds of the present invention were examined for anti-viral activity in a cellular assay. […] The cellular assay was performed according to the following procedure.

[1] = pCC50 with mock transfected cells

Row | Compound | A (FR value towards mutant A) (HIV strain A) | F (FR towards mutant F) (HIV strain F) | E (FR towards mutant E) (HIV strain E) | B (FR towards mutant B) (HIV strain B) | D (FR towards mutant D) (HIV strain D) | C (FR towards mutant C) (HIV strain C) | Tox (pCC50) (mock-infected MT4 cells; [1]) | pEC50 (HIV-1 strain LAI) | WT (pEC50 against wild type HIV-LAI strain) (HIV-1 strain LAI) | Tox (pCC50) (mock-infected MT4 cells)
1 | CC(=O)Nc1nc(-c2ccc(S(=O)(=O)N(CC(C)C)CC(O)C(Cc3ccccc3)NC(=O)OC3COC4OCCC34)cc2)cs1 (stereo not shown) [Compound 3] | 39 | 151 | 17 | 8.9 | 26 | 7.4 | 4.11 | 8.3 | 8.3 | –
2 | CC(C)CN(CC(O)C(Cc1ccccc1)NC(=O)OC1COC2OCCC12)S(=O)(=O)c1ccc(-c2csc(N)n2)cc1 (stereo not shown) [Compound 2] | 26 | 91 | 8.9 | 10.0 | 9.3 | 3.0 | – | 8.5 | 8.5 | 4.07
3 | Cc1nc(-c2ccc(S(=O)(=O)N(CC(C)C)CC(O)C(Cc3ccccc3)NC(=O)OC3COC4OCCC34)cc2)co1 (stereo not shown) [Compound 35] | 11 | 42 | 8.3 | 10.5 | 6.2 | 8.3 | – | 8.4 | 8.4 | <4.0
4 | CC(=O)Nc1nc(-c2ccc(S(=O)(=O)N(CC(C)C)CC(O)C(Cc3ccccc3)NC(=O)OC3COC4OCCC34)cc2)c[nH]1 (stereo not shown) [Compound 32] | 1.3 | 7.2 | 0.95 | 1.0 | – | 0.33 | <4.0 | 7.7 | 7.7 | –
5 | CC(=O)OC(c1ccccc1)c1nc(-c2ccc(S(=O)(=O)N(CC(C)C)CC(O)C(Cc3ccccc3)NC(=O)OC3COC4OCCC34)cc2)co1 (stereo not shown) [Compound 48] | 89 | – | 6.9 | 25 | 17 | 5.8 | – | 8.3 | 8.3 | <4.0
6 | CC(C)CN(C[C@@H](O)[C@H](Cc1ccccc1)NC(=O)O[C@H]1CO[C@H]2OCC[C@H]21)S(=O)(=O)c1ccc(-c2noc(-c3ccco3)n2)cc1 [Compound 38, [(1S,2R)-3-[N-[4-(5-(furan-2-yl)oxadiazol-3-yl)phenylsulfonyl]-N-(2-methylpropyl)amino]-2-hydroxy-1-(phenylmethyl)propyl]carbamic acid, [(3R,3aS,6aR)-hexahydrofuro[2,3-b]furan-3-yl]ester] | 30 | 44.7 | 9.5 | 23 | 14.8 | 6.8 | <4.49 | 8.4 | 8.4 | –
7 | CC(C)CN(CC(O)C(Cc1ccccc1)NC(=O)OC1COC2OCCC12)S(=O)(=O)c1ccc(-c2c[nH]c(NC(=O)OC3COC4OCCC34)n2)cc1 (stereo not shown) [Compound 33] | 0.71 | 2.6 | 0.19 | 0.66 | – | 0.2 | <4.0 | 6.7 | 6.7 | –
8 | COc1cccc(-c2nc(-c3ccc(S(=O)(=O)N(CC(C)C)CC(O)C(Cc4ccccc4)NC(=O)OC4COC5OCCC45)cc3)co2)c1 (stereo not shown) [Compound 44] | 39 | 77 | 13 | 14 | 15 | 8.1 | <4.49 | 8.0 | 8.0 | –
9 | CCCc1nc(-c2ccc(S(=O)(=O)N(CC(C)C)CC(O)C(Cc3ccccc3)NC(=O)OC3COC4OCCC34)cc2)co1 (stereo not shown) [Compound 40] | 5.0 | 219 | 41 | – | 12.9 | 4.1 | – | 8.5 | 8.5 | <4.49
10 | CC(C)CN(CC(O)C(Cc1ccccc1)NC(=O)OC1COC2OCCC12)S(=O)(=O)c1ccc(-c2csc(NCCCN(C)C)n2)cc1 (stereo not shown) [Compound 6] | 6.2 | 79 | 6.6 | 4.7 | 3.8 | 1.2 | – | 7.5 | 7.5 | 4.69
11 | [(1S,2R)-2-hydroxy-3-[N-[4-(2-methylaminothiazol-4-yl)phenylsulfonyl]-N-(2-methylpropyl)amino]-1-(phenylmethyl)propyl]carbamic acid, [(3R,3aS,6aR)-hexahydrofuro[2,3-b]furan-3-yl]ester [Compound 1] | 5.4 | 42 | 5.0 | 2.1 | 7.9 | 1.2 | 4.19 | 8.5 | 8.5 | –
12 | CC(C)CN(CC(O)C(Cc1ccccc1)NC(=O)OC1COC2OCCC12)S(=O)(=O)c1ccc(-c2coc(-c3ccc([N+](=O)[O-])cc3)n2)cc1 (stereo not shown) [Compound 43] | 54 | – | 6.6 | 23 | 10.2 | 9.1 | <4.0 | 7.9 | 7.9 | –

— patent US7763641B2, “Broadspectrum heterocyclic substituted phenyl containing sulfonamide HIV protease inhibitors” (Tibotec Pharmaceuticals Ltd., priority 2001, dated 2010)
